The values that follow come from PubChem BioAssay AID1794801 (Yongcheng Song lab at Baylor College of Medicine, 2022).

Active and inactive are the calls of the source.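 How the source made its calls: active means compounds that disrupt AF9 binding to the DOT1L peptide with an IC50 under 30 µM; inactive means the rest.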

What is called IC50 is the midpoint of a concentration-inhibition curve.

Protein AF-9 (Homo sapiens), sequence (P42568 whole entry, looked up): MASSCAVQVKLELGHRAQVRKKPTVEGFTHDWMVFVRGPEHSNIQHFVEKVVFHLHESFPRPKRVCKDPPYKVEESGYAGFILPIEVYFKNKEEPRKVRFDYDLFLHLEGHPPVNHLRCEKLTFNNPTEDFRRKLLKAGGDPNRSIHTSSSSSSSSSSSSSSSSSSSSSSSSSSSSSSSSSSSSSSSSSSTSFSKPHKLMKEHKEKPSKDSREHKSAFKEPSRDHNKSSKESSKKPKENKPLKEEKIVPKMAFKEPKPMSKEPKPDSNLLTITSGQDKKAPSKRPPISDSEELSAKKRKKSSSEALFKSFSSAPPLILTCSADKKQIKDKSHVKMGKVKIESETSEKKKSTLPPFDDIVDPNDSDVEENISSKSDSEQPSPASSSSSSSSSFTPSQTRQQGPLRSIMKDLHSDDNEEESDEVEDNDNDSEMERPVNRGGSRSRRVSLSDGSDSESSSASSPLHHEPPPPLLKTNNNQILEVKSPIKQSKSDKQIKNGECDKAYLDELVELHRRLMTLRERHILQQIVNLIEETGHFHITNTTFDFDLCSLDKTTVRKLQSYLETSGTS

The experiment concerns the target Protein AF-9 (Homo sapiens) (UniProt P42568). Kind of experiment: AF9–DOT1L protein-protein binding disruptors – biochemical, AlphaLISA, MBP-tagged AHD, biotinylated peptide, dose response (AID 1794801). The settings on record: MBP-AF9 AHD and biotin-DOT1L peptide. (In Alpha technology, singlet oxygen from a donor bead excites a nearby acceptor bead.)
For the molecule `O=C(NCC1CCNCC1)c1cc2cc(-c3cn[nH]c3)ccc2[nH]1`, the IC50 was > 30 µM (inactive).

For `O=C(NCC1CCNCC1)c1c[nH]c2cc(-c3ccc(N4CCCC4)cc3)ccc12`, the half-maximal inhibitory concentration (IC50) was 2.9 µM. For `NCc1ccc(-c2ccc3cc(C(=O)NCC4CCNCC4)oc3c2)cc1`, the IC50 was > 30 µM (inactive).

`O=C(NCC1CCNCC1)c1cc2ccc(-c3ccc(N4CCCC4)cc3)cc2[nH]1`: the concentration for half-maximal inhibition (IC50) was 2.8 µM.

For `O=C(NCC1CCNCC1)c1cc2cc(-c3ccc(N4CCCCC4)cc3)ccc2[nH]1`, the IC50 was 3.6 µM. On to `O=C(NCC1CCNCC1)c1cc2cc(-c3ccc(N4CCCCC4)cc3)ccc2s1`, for which the concentration for half-maximal inhibition (IC50) is 2.5 µM. To `O=C(NCC1CCNCC1)c1cc2ccc(-c3ccc(N4CCCC4)cc3)cc2s1` belongs 5.3 µM; to `O=C(NCC1CCNCC1)c1cc2ccc(Nc3ccc(N4CCCCC4)cc3)cc2o1`, 4.6 µM.

For the molecule `O=C(NCC1CCNCC1)c1c[nH]c2cc(-c3ccc(N4CCCCC4)cc3)ccc12`, the concentration for half-maximal inhibition (IC50) was 4.5 µM. To `O=C(NCC1CCNCC1)c1cc2ccc(Nc3ccc(N4CCCCC4)cc3)cc2s1` belongs 2.3 µM. Then `O=C(NCC1CCNCC1)c1cc2cc(-c3ccc(N4CCCC4)cc3)ccc2[nH]1`, with 2.7 µM; and `O=C(NCC1CCNCC1)c1cc2ccc(-c3ccc(N4CCCCC4)cc3)cc2[nH]1`, with 3.3 µM. As for `O=C(NCC1CCNCC1)c1cc2ccc(-c3ccc(N4CCCCC4)cc3)cc2s1`, the IC50 was 1.6 µM.
